# Source: patent US20090004185A1, “AMINO-SUBSTITUTED QUINAZOLINE DERIVATIVES AS INHIBITORS OF BETA-CATENIN/TCF-4 PATHWAY AND CANCER TREATMENT AGENTS” (WYETH, priority 2007, published 2009)
# How the values were obtained:
# β-catenin/Tcf-4 = assay: cells; assay type: cell-based; conditions: 24 hours of incubation with compound, ratio Firefly/Renilla luciferase
# In short: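 SW480-derived lines with integrated reporters (Tcf-4-driven firefly luciferase; SV40 firefly as specificity control; SV40 Renilla for cell number/toxicity), treated 24 hours with titrated compounds, final 0.316% DMSO. Dual-luciferase read-out; firefly/Renilla ratio as % of control, duplicate plates, IC50 (nM) from curve fit.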
# SV40-Luc = SV40-Luc control luciferase reporter assay, SV 5A8 cell line (SV40-Luc and SV40-R-Luc), control for non-specific inhibitors; assay type: cell-based, human; conditions: SV 5A8 cells derived from SW480, 24 hours of incubation with compound, ratio Firefly/Renilla luciferase
# In short: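 Read-out is the firefly-to-Renilla luminescence ratio, expressed as % of control and averaged over duplicate plates, from which IC50s were fitted. Renilla under SV40 normalises for cell number and toxicity. SW480-derived lines carried integrated Tcf-4- or SV40-driven firefly reporters; compound exposure lasted 24 h.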
# [1] = Homo sapiens, SW480, 24 h, Tcf 33.13 cells derived from SW480
# [2] = Homo sapiens, Tcf22C11, 24 h, Tcf 22C11 cells derived from SW480
# [3] = Tcf 22C11 cells derived from SW480
# [4] = Tcf 33.13 cells derived from SW480
Compound,IC50 (β-catenin/Tcf-4; [1]),IC50 (β-catenin/Tcf-4; [2]),"IC50 (SV40-Luc; Homo sapiens, SV5A8, 24 h)",IC50 (β-catenin/Tcf-4; [3]),IC50 (β-catenin/Tcf-4; [4]),IC50 (SV40-Luc)
"CNc1nc(NCc2ccc(NC(=O)c3ccc(Cl)nc3)cc2)c2cc(OC)ccc2n1 [Example 31, 6-chloro-N-[4-({[6-methoxy-2-(methylamino)quinazolin-4-yl]amino}methyl)phenyl]nicotinamide]",4120 nM,5950 nM,> 22300 nM,–,–,–
"CNc1nc(NCc2ccc(NC(=O)c3ccc(Cl)cc3F)cc2)c2ccccc2n1 [Example 14, 4-chloro-2-fluoro-N-[4-({[2-(methylamino)quinazolin-4-yl]amino}methyl)phenyl]benzamide]",1290 nM,891 nM,> 2870 nM,–,–,–
"CC(C)c1ccc2c(NCc3ccc(NC(=O)c4ccc(F)cc4)cc3)nc(N(C)C)nc2c1 [Example 61, N-[4-({[2-(dimethylamino)-7-isopropylquinazolin-4-yl]amino}methyl)phenyl]-4-fluorobenzamide]",327 nM,532 nM,> 5060 nM,–,–,–
"CCN(CC)c1nc(NCc2ccc(NC(=O)c3ccc(F)cc3)cc2)c2cc(C)ccc2n1 [Example 43, N-[4-((2-(diethylamino)-6-methylquinazolin-4-ylamino)methyl)phenyl)-4-fluorobenzamide]",492 nM,738 nM,> 5460 nM,–,–,–
"CN(C)CC#Cc1ccc2nc(N(C)C)nc(NCc3ccc(NC(=O)c4ccc(F)cc4)cc3)c2c1 [Example 69, N-{4-[({2-(dimethylamino)-6-[3-(dimethylamino)prop-1-yn-1-yl]quinazolin-4-yl}amino)methyl]phenyl}-4-fluorobenzamide]",1940 nM,2010 nM,> 20100 nM,–,–,–
"CNc1nc(NCc2ccc(NC(=O)c3cc(F)cc(F)c3)cc2)c2cc(C)ccc2n1 [Example 41, 3,5-difluoro-N-[4-({[6-methyl-2-(methylamino)quinazolin-4-yl]amino}methyl)phenyl]benzamide]",1650 nM,2320 nM,> 5770 nM,–,–,–
"CNc1nc(NCc2ccc(NC(=O)c3ccc(Cl)cc3F)cc2)c2cc(C)cc(C)c2n1 [Example 35, 4-chloro-N-[4-({[6,8-dimethyl-2-(methylamino)quinazolin-4-yl]amino}methyl)phenyl]-2-fluorobenzamide]",> 21600 nM,> 21600 nM,> 21600 nM,–,–,–
"CNc1nc(NCc2ccc(NC(=O)c3ccc(Cl)c(Cl)c3)cc2)c2cc(C)ccc2n1 [Example 37, 3,4-dichloro-N-[4-({[6-methyl-2-(methylamino)quinazolin-4-yl]amino}methyl)phenyl]benzamide]",5280 nM,> 10700 nM,> 21400 nM,–,–,–
"Cc1cc(C)c2nc(N3CCN(C)CC3)nc(NCc3ccc(NC(=O)c4ccc(F)cc4)cc3)c2c1 [Example 49, N-[4-({[6,8-dimethyl-2-(4-methylpiperazin-1-yl)quinazolin-4-yl]amino}methyl)phenyl]-4-fluorobenzamide]",> 2510 nM,> 2510 nM,> 10000 nM,–,–,–
"Cc1ccc2nc(N(C)C)nc(NCc3ccc(NC(=O)c4ccc(F)cc4)cc3)c2c1 [Example 40, N-[4-({[2-(dimethylamino)-6-methylquinazolin-4-yl]amino}methyl)phenyl]-4-fluorobenzamide]",–,–,–,1620 nM,2050 nM,> 11600 nM
"C/C=C/c1ccc2c(NCc3ccc(NC(=O)c4ccc(F)cc4)cc3)nc(N(C)C)nc2c1 [Example 96, N-{4-[({2-(dimethylamino)-7-[(1E)-prop-1-en-1-yl]quinazolin-4-yl}amino)methyl]phenyl}-4-fluorobenzamide]",511 nM,497 nM,> 2540 nM,–,–,–

# Continued, values first:
IC50 (β-catenin/Tcf-4; [1]),IC50 (β-catenin/Tcf-4; [2]),"IC50 (SV40-Luc; Homo sapiens, SV5A8, 24 h)",IC50 (β-catenin/Tcf-4; [3]),IC50 (β-catenin/Tcf-4; [4]),IC50 (SV40-Luc),Compound
939 nM,1280 nM,> 15200 nM,–,–,–,"CCOC(=O)N1CCN(c2nc(NCc3ccc(NC(=O)c4ccc(F)cc4)cc3)c3ccc(C)cc3n2)CC1 [Example 218, ethyl 4-[4-({4-[(4-fluorobenzoyl)amino]benzyl}amino)-7-methylquinazolin-2-yl]piperazine-1-carboxylate]"
236 nM,508 nM,> 5250 nM,–,–,–,"C#Cc1ccc2c(NCc3ccc(NC(=O)c4ccc(F)cc4)cc3)nc(N(C)C)nc2c1 [Example 108, N-[4-({[2-(dimethylamino)-7-ethynylquinazolin-4-yl]amino}methyl)phenyl]-4-fluorobenzamide]"
829 nM,888 nM,> 5010 nM,–,–,–,"Cc1ccc2c(NCc3ccc(NC(=O)c4ccc(F)cc4)cc3)nc(NCCN3CCCC3)nc2c1 [Example 237, 4-fluoro-N-{4-[({7-methyl-2-[(2-pyrrolidin-1-ylethyl)amino]quinazolin-4-yl}amino)methyl]phenyl}benzamide]"
906 nM,1190 nM,> 8080 nM,–,–,–,"Cc1ccc2c(NCc3ccc(NC(=O)C4CCN(Cc5ccncc5)CC4)cc3)nc(N(C)C)nc2c1 [Example 257, N-[4-({[2-(dimethylamino)-7-methylquinazolin-4-yl]amino}methyl)phenyl]-1-(pyridin-4-ylmethyl)piperidine-4-carboxamide]"
336 nM,318 nM,> 5590 nM,–,–,–,"Cc1ccc2c(NCc3ccc(NC(=O)c4ccc(Cl)nc4)cc3)nc(N(C)C)nc2c1 [Example 242, 6-chloro-N-[4-({[2-(dimethylamino)-7-methylquinazolin-4-yl]amino}methyl)phenyl]nicotinamide]"
> 962 nM,1050 nM,> 3850 nM,–,–,–,"CN(C)c1nc(NCc2ccc(NC(=O)C3CCN(Cc4ccccc4)CC3)cc2)c2ccc(/C=C/C(C)(C)C)cc2n1 [Example 152, 1-benzyl-N-{4-[({2-(dimethylamino)-7-[(1E)-3,3-dimethylbut-1-en-1-yl]quinazolin-4-yl}amino)methyl]phenyl}piperidine-4-carboxamide]"
677 nM,573 nM,> 4280 nM,–,–,–,"Cc1ccc2c(NCc3ccc(NC(=O)C4CCN(Cc5ccccc5)CC4)cc3)nc(N(C)Cc3ccccc3)nc2c1 [Example 142, 1-benzyl-N-{4-[({2-[benzyl(methyl)amino]-7-methylquinazolin-4-yl}amino)methyl]phenyl}-piperidine-4-carboxamide]"
–,–,–,229 nM,453 nM,> 2330 nM,CN(C)c1ccc(-c2ccc3nc(N(C)C)nc(NCc4ccc(NC(=O)c5ccc(F)cc5)cc4)c3c2)nc1 [Example 169]
365 nM,494 nM,> 15900 nM,–,–,–,"Cc1ccc2c(NCc3ccc(NC(=O)C4CCN(Cc5ccccc5)CC4)cc3)nc(N3CCN(c4ncccn4)CC3)nc2c1 [Example 136, 1-benzyl-N-[4-({[7-methyl-2-(4-pyrimidin-2-ylpiperazin-1-yl)quinazolin-4-yl]amino}methyl)phenyl]piperidine-4-carboxamide]"
1280 nM,2810 nM,> 9060 nM,–,–,–,"O=C(Nc1ccc(CNc2nc(NCc3ccco3)nc3ccc(C(F)(F)F)cc23)cc1)c1ccc(Cl)cc1 [Example 168, 4-chloro-N-[4-({[2-[(2-furylmethyl)amino]-6-(trifluoromethyl)quinazolin-4-yl]amino}methyl)phenyl]benzamide]"
599 nM,499 nM,> 2560 nM,–,–,–,"C/C=C\c1ccc2c(NCc3ccc(NC(=O)c4ccc(F)cc4)cc3)nc(N(C)C)nc2c1 [Example 97, N-{4-[({2-(dimethylamino)-7-[(1Z)-prop-1-en-1-yl]quinazolin-4-yl}amino)methyl]phenyl}-4-fluorobenzamide]"
467 nM,539 nM,> 4200 nM,–,–,–,"Cc1ccc(CN2CCC(C(=O)Nc3ccc(CNc4nc(N(C)C)nc5cc(C)ccc45)cc3)CC2)cc1 [Example 247, N-[4-({[2-(dimethylamino)-7-methylquinazolin-4-yl]amino}methyl)phenyl]-1-(4-methylbenzyl)piperidine-4-carboxamide]"
1030 nM,1070 nM,> 9170 nM,–,–,–,"Cc1ccc2nc(N(C)C)nc(NCc3ccc(NC(=O)C4CCN(Cc5ccccc5)CC4)cc3)c2c1 [Example 148, 1-benzyl-N-[4-({[2-(dimethylamino)-6-methylquinazolin-4-yl]amino}methyl)phenyl]piperidine-4-carboxamide]"
–,–,–,6990 nM,6550 nM,> 9510 nM,O=C(Nc1ccc(CNc2nc(N3CCCC3)nc3ccc(C(F)(F)F)cc23)cc1)c1ccc(Cl)cc1 [Example 163]
415 nM,573 nM,> 8100 nM,–,–,–,"Cc1ccc2c(NCc3ccc(NC(=O)C4CCN(Cc5ccc(Cl)nc5)CC4)cc3)nc(N(C)C)nc2c1 [Example 259, 1-[(6-chloropyridin-3-yl)methyl]-N-[4-({[2-(dimethylamino)-7-methylquinazolin-4-yl]amino}methyl)phenyl]piperidine-4-carboxamide]"
650 nM,918 nM,> 7880 nM,–,–,–,"Cc1ccc2c(NCc3ccc(NC(=O)c4ccc(F)cc4)cc3)nc(N(C)CCc3ccccn3)nc2c1 [Example 222, 4-fluoro-N-{4-[({7-methyl-2-[methyl(2-pyridin-2-ylethyl)amino]quinazolin-4-yl}amino)methyl]phenyl}benzamide]"
–,–,–,712 nM,537 nM,> 4680 nM,"CCCC/C=C/c1ccc2nc(N(C)C)nc(NCc3ccc(C(=O)Nc4ccc(F)cc4)cc3)c2c1 [Example 175, E-(4-((2-dimethylamino)-6-(hex-1-enyl)quinazolin-4-ylamino)methyl)-N-(4-fluorophenyl)benzamide]"
